Measured values published in US20240368125A1, “NOVEL PYRAZINYL-TRIAZOLE COMPOUNDS AS PESTICIDES” (Bayer Aktiengesellschaft, priority 2021, published 2024).

Legend:
Format in all cases: in vivo
[1] = test system: adult cat fleas (Ctenocephalides felis); assay: Ctenocephalides felis in-vitro contact test, adult cat flea; conditions: Ctenocephalides felis; 1 μg/cm^2 (=100 g/ha), after 48 hours; read-out: efficacy (fleas dead or moribund)
[2] = test system: adult brown dog ticks (Rhipicephalus sanguineus); assay: Rhipicephalus sanguineus in-vitro contact test, adult brown dog ticks; conditions: Rhipicephalus sanguineus; 1 μg/cm^2 (=100 g/ha), after 48 hours; read-out: efficacy (ticks dead or moribund)
In short: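 Acetone solution (900 ppm giving 5 μg/cm²) coated on inner walls of glass tubes; after drying, 5-10 adult ticks added and held at room temperature 48 h. Ticks then placed on 45-50 °C plate ≤5 min; those unable to climb away scored dead/moribund, efficacy as % affected.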

[3] = test system: larvae of the southern green stink bug (Nezara viridula); assay: Nezara viridula spray test; conditions: Nezara viridula, in Hordeum vulgare, 96 h
In short: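 Barley plants sprayed with compound in acetone/DMF diluted in water with 1000 ppm alkylarylpolyglycol ether emulsifier, then infested with N. viridula larvae. Mortality (%) scored after 4 days; 100% means all bugs killed.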

[4] = test system: fall armyworm larvae (Spodoptera frugiperda); assay: Spodoptera frugiperda spray test (SPODFR); conditions: 168 h; for mortality at 100 g/ha: in Zea mays
In short: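 Compound in acetone/dimethylformamide, diluted with water containing 1000 ppm alkylarylpolyglycol ether emulsifier. Maize leaf sections sprayed, dried, then infested with fall armyworm larvae. Mortality (%) scored after 7 days, 100% meaning all caterpillars killed.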

[5] = test system: adult mosquitoes Aedes aegypti strain MONHEIM; assay: Aedes aegypti test (AEDSAE surface treatment & contact assay); conditions: 24 hours after contact, read-out: efficacy (mortality); for mortality at 4 mg/m2: surface concentration 4 mg/m^2, 30 min exposure; for mortality at 20 mg/m2: surface concentration 20 mg/m^2, 30 min exposure
Procedure: Aedes aegypti Test (AEDSAE Surface Treatment & Contact Assay
(§1) Solvent: Aceton+2000 ppm rapeseed oil methyl ester (RME)
(§2) In order to produce a sufficient, active ingredient containing solution it is necessary to solve the test compound in the solvent-mix (acetone at 2 mg/ml/RME 2000 ppm). This solution is pipetted onto a glazed tile and after evaporation of the acetone, adult mosquitoes of the species Aedes aegypti strain MONHEIM are placed onto the dried surface. The exposure time is 30 minutes. Mortality in percent (%) is determined 24 hours after contact of the insects to the treated surface. 100% mortality means that all tested insects are dead, whereas 0% means that no insect died.

[6] = test system: adult mosquitoes Anopheles funestus strain FUMOZ-R; assay: Anopheles funestus test (ANPHFU surface treatment & contact assay); conditions: 24 hours after contact, read-out: efficacy (mortality); for mortality at 4 mg/m2: surface concentration 4 mg/m^2, 30 min exposure; for mortality at 20 mg/m2: surface concentration 20 mg/m^2, 30 min exposure
Procedure: Anopheles funestus Test (ANPHFU Surface Treatment & Contact Assay
as §1
as §2, with “Anopheles funestus” for “Aedes aegypti”, “FUMOZ-R (Hunt et al., Med. Vet. Entomol. 2005 September; 19(3): 271-275)” for “MONHEIM”

[7] = test system: adult mosquitoes Culex quinquefasciatus strain P00; assay: Culex quinquefasciatus test (CULXFA surface treatment & contact assay); conditions: 24 hours after contact, read-out: efficacy (mortality); for mortality at 4 mg/m2: surface concentration 4 mg/m^2, 30 min exposure; for mortality at 20 mg/m2: surface concentration 20 mg/m^2, 30 min exposure
Procedure: Culex quinquefasciatus Test (CULXFA Surface Treatment & Contact Assay
as §1
as §2, with “Culex quinquefasciatus” for “Aedes aegypti”, “P00” for “MONHEIM”

SMILES: CNC(=O)c1cnc(-n2ncnc2[C@H](C)NC(=O)c2cc(C(F)(F)F)cc(C(F)(F)F)c2)cn1 [Example I-009]
- pest or weed control at 1 µg/cm2 [1]: 100%
- pest or weed control at 1 µg/cm2, 100 g/ha [2]: 100%
- mortality at 500 g/ha [3]: 100%
- mortality at 100 g/ha [4]: 100%
- mortality at 4 mg/m2 [5]: 80 to 100%
- mortality at 20 mg/m2 [5]: 80 to 100%
- mortality at 4 mg/m2 [6]: 85 to 100%
- mortality at 20 mg/m2 [6]: 85 to 100%
- mortality at 4 mg/m2 [7]: 80 to 100%
- mortality at 20 mg/m2 [7]: 80 to 100%

SMILES: CNC(=O)c1cnc(-n2ncnc2[C@H](C)NC(=O)c2cc(OC(F)(F)F)cc(C3CC3)c2)cn1 [Example I-021]
- pest or weed control at 1 µg/cm2 [1]: 100%
- pest or weed control at 1 µg/cm2, 100 g/ha [2]: 100%
- mortality at 500 g/ha [3]: 100%
- mortality at 100 g/ha [4]: 100%
- mortality at 4 mg/m2 [5]: 80 to 100%
- mortality at 20 mg/m2 [5]: 80 to 100%
- mortality at 4 mg/m2 [7]: 80 to 100%
- mortality at 20 mg/m2 [7]: 80 to 100%

SMILES: C[C@H](NC(=O)c1cc(C(F)(F)F)cc(C(F)(F)F)c1)c1ncnn1-c1cnc(C(=O)N(C)C2CC2)cn1 [Example I-007]
- pest or weed control at 1 µg/cm2 [1]: 100%
- pest or weed control at 1 µg/cm2, 100 g/ha [2]: 100%
- mortality at 100 g/ha [4]: 100%
- mortality at 4 mg/m2 [5]: 80 to 100%
- mortality at 20 mg/m2 [5]: 80 to 100%
- mortality at 4 mg/m2 [7]: 80 to 100%
- mortality at 20 mg/m2 [7]: 80 to 100%

SMILES: C[C@H](NC(=O)c1cc(C(F)(F)F)cc(C(F)(F)F)c1)c1ncnn1-c1cnc(C(=O)N(C)CC2CC2)cn1 [Example I-008]
- pest or weed control at 1 µg/cm2 [1]: 100%
- pest or weed control at 1 µg/cm2, 100 g/ha [2]: 100%
- mortality at 500 g/ha [3]: 100%
- mortality at 100 g/ha [4]: 100%
- mortality at 4 mg/m2 [5]: 80 to 100%
- mortality at 20 mg/m2 [5]: 80 to 100%
- mortality at 4 mg/m2 [7]: 80 to 100%
- mortality at 20 mg/m2 [7]: 80 to 100%

SMILES: C[C@H](NC(=O)c1cc(OC(F)(F)F)cc(C2CC2)c1)c1ncnn1-c1cnc(C(=O)N(C)C)cn1 [Example I-002]
- pest or weed control at 1 µg/cm2 [1]: 100%
- pest or weed control at 1 µg/cm2, 100 g/ha [2]: 100%
- Emax at 4 g/ha ([4]; SPODFR, 4 g ai/ha, 7 dat, read-out: % Efficacy): 100%
- Emax at 20 g/ha ([4]; SPODFR, 20 g ai/ha, 7 dat, read-out: % Efficacy): 100%
- Emax at 100 g/ha ([4]; SPODFR, 100 g ai/ha, 7 dat, read-out: % Efficacy): 100%
- mortality at 100 g/ha [4]: 100%
- mortality at 4 mg/m2 [5]: 80 to 100%
- mortality at 20 mg/m2 [5]: 80 to 100%
- mortality at 4 mg/m2 [6]: 85 to 100%
- mortality at 20 mg/m2 [6]: 85 to 100%
- mortality at 20 mg/m2 [7]: 80 to 100%
